Laboratory results: publication PMC8795197, “Safety and activity of WX-0593 (Iruplinalkib) in patients with ALK- or ROS1-rearranged advanced non-small cell lung cancer: a phase 1 dose-escalation and dose-expansion trial” (Signal Transduction and Targeted Therapy, 2022)
Entries after “also recorded” stand apart in the source; their conditions may differ.

Test system: advanced NSCLC patients with ALK or ROS1 rearrangement
Experiment: Phase 1 dose-expansion phase: antitumor activity (RECIST 1.1, investigators)
Format: in vivo, human
Details: for intracranial objective response rate: Baseline measurable CNS metastasis; for DOR, median (95% CI) / PFS, median (95% CI) / TTP, median (95% CI) / DCR (95% CI) / ORR (95% CI) / PFS, number of events (%): ALK-positive patients
From the text: Patients continued treatment until documented disease progression, unacceptable toxicity, withdrawal of consent, the start of a new anticancer treatment, death, loss of follow-up, or end of the study (whichever occurred first). Patients were permitted to continue treatment after progression if they were still experiencing clinical benefit, at the discretion of the investigator. Patients performed imaging evaluation at baseline, with computed tomography or magnetic resonance imaging of the chest, abdomen, pelvis, and brain. In the dose-escalation phase, the first efficacy evaluation was done after 3-week continuous administration of WX-0593 and every 6 weeks thereafter. […] AEs were assessed in all patients throughout this study and graded per the National Cancer Institute Common Terminology Criteria for Adverse Events version 4.03. In the dose-expansion phase, the primary endpoint was ORR assessed by investigators. Other key secondary endpoints included PFS, DCR, time to progression (TTP), DOR, intracranial response, and safety. Additionally, overall survival (OS) was assessed as a prespecified exploratory endpoint. ORR was defined as the proportion of patients who had best overall response, including CR or PR. PFS was calculated from the date of the first dose of WX-0593 to the date of documented disease progression or death (whichever occurred first). DCR was defined as the proportion of patients who had best overall response, including CR, PR, or SD, with a duration of at least 12 weeks. TTP was calculated from the date when the first dose of WX-0593 was given to first documented disease progression. […] OS was calculated from the date when the first dose of WX-0593 was administered to the date of death from any cause. Safety analysis was performed in the SS, which was comprised of all patients treated with one dose of WX-0593 and with safety data recorded. Efficacy analysis was performed in the FAS, which was defined as all patients treated with at least one dose of WX-0593. The PK analysis set included all patients treated with at least one dose of WX-0593 and with at least one evaluable PK sample. […] Descriptive statistics were carried out to summarize patients’ baseline characteristics and safety. […] All time-to-event data (PFS, TTP, DOR, and OS) and their corresponding 95% CIs were estimated by Kaplan–Meier methods. PK parameter analyses were done with Phoenix WinNonlin version 8.0. All other statistical analyses were conducted using SAS version 9.4.

[1] = ALK-rearranged, crizotinib as the only ALK TKI

Structure (SMILES): COc1cc(N2CCC3(CCN(C)CC3)CC2)ccc1Nc1ncc(Cl)c(Nc2ccccc2P(C)(C)=O)n1 [WX-0593]
- objective response rate (120mg, ALK-rearranged patients): 53.2% (25/47, 38.1-67.9%)
- objective response rate (120mg, ALK-rearranged patients, ALK TKI naive): 76.5% (13/17, 50.1-93.2%)
- objective response rate (120mg, ALK-rearranged patients, ALK TKI naive, chemotherapy naïve): 75.0%(6/8, 34.9-96.8%)
- objective response rate (120mg, ALK-rearranged patients, ALK TKI naive, received chemotherapy before): 77.8% (7/9, 40.0-97.2%)
- objective response rate (120mg, ALK-rearranged patients, Crizotinib and other ALK TKIs): 0 (0/2, 0-84.2%)
- objective response rate (120mg, ALK-rearranged patients, Crizotinib only): 44.4% (12/27, 25.5-64.7%)
- objective response rate (120mg, ALK-rearranged patients, Other ALK TKIs): 0 (0/1, 0-97.5%)
- objective response rate (120mg, Baseline CNS metastasis): 22.9% (8/35, 10.4-40.1%)
- objective response rate (120mg, Baseline CNS metastasis, ALK TKI naive): 23.1% (3/13, 5.0-53.8%)
- objective response rate (120mg, Baseline CNS metastasis, Crizotinib only): 25.0% (5/20, 8.7-49.1%)
- objective response rate (120mg, Baseline CNS metastasis, Radiotherapy before): 16.7% (2/12, 2.1-48.4%)
- objective response rate (120mg, Baseline CNS metastasis, Radiotherapy naïve): 26.1% (6/23, 10.2-48.4%)
- intracranial objective response rate (120mg): 45.5% (2/11, 16.7-76.6%)
- intracranial objective response rate (120mg, ALK TKI naive): 33.3% (1/3, 0.8-90.6%)
- intracranial objective response rate (120mg, Crizotinib only): 50.0% (4/8, 15.7-84.3%)
- intracranial objective response rate (120mg, Radiotherapy before): 28.6% (2/7, 3.7-71.0%)
- intracranial objective response rate (120mg, Radiotherapy naïve): 75.0% (3/4, 19.4-99.4%)
- objective response rate (120mg, Prior ALK TKI treatment: Crizotinib and other ALK TKI): 0 (0/2, 0-84.2%)
- objective response rate (120mg, Prior ALK TKI treatment: Crizotinib only): 41.4% (12/29, 23.5-61.1%)
- objective response rate (120mg, ROS1-rearranged patients): 0 (0/3, 0-70.8%)
- objective response rate (120mg, ROS1-rearranged patients, Crizotinib naive): 0 (0/1, 0-97.5%)
- objective response rate (120mg, ROS1-rearranged patients, Received Crizotinib before): 0 (0/2, 0-84.2%)
- objective response rate (120mg, dose expansion phase, Prior ALK TKI treatment: ALK TKI naive): 72.2% (13/18, 46.5-90.3%)
- objective response rate (180mg, ALK-rearranged patients): 63.6% (28/44, 47.8-77.6%)
- objective response rate (180mg, ALK-rearranged patients, ALK TKI naive): 76.2% (16/21, 52.8-91.8%)
- objective response rate (180mg, ALK-rearranged patients, ALK TKI naive, chemotherapy naïve): 91.7% (11/12, 61.5-99.8%)
- objective response rate (180mg, ALK-rearranged patients, ALK TKI naive, received chemotherapy before): 55.6% (5/9, 21.2-86.3%)
- objective response rate (180mg, ALK-rearranged patients, Crizotinib and other ALK TKIs): 66.7% (2/3, 9.4-99.2%)
- objective response rate (180mg, ALK-rearranged patients, Crizotinib only): 47.4% (9/19, 24.4-71.1%)
- objective response rate (180mg, ALK-rearranged patients, Other ALK TKIs): 100% (1/1, 2.5-100.0%)
- objective response rate (180mg, Baseline CNS metastasis, ALK TKI naive): 28.6% (2/7, 3.7-71.0%)
- objective response rate (180mg, Baseline CNS metastasis, Crizotinib only): 15.4% (2/13, 1.9-45.4%)
- objective response rate (180mg, Baseline CNS metastasis, Radiotherapy before): 0 (0/7, 0-41.0%)
- objective response rate (180mg, Baseline CNS metastasis, Radiotherapy naïve): 31.3% (5/16, 11.0-58.7%)
- intracranial objective response rate (180mg): 50.0% (2/4, 6.8-93.2%)
- intracranial objective response rate (180mg, ALK TKI naive): 100% (1/1, 2.5-100%)
- intracranial objective response rate (180mg, Crizotinib only): 50.0% (1/2, 1.3-98.7%)
- intracranial objective response rate (180mg, Radiotherapy naïve): 31.3% (5/16, 11.0-58.7%)
- objective response rate (180mg, Prior ALK TKI treatment: Crizotinib and other ALK TKI): 66.7% (2/3, 9.4-99.2%)
- objective response rate (180mg, Prior ALK TKI treatment: Crizotinib only): 42.9% (9/21, 21.8-66.0%)
- objective response rate (180mg, ROS1-rearranged patients): 66.7% (4/6, 22.3-95.7%)
- objective response rate (180mg, ROS1-rearranged patients, Crizotinib naive): 100% (4/4, 39.8-100%)
- objective response rate (180mg, ROS1-rearranged patients, Received Crizotinib before): 0 (0/2, 0-84.2%)
- objective response rate (180mg, dose expansion phase, Prior ALK TKI treatment: ALK TKI naive): 79.2% (19/24, 57.8-92.9%)
- DCR (ALK TKI naive): 92.9%
- ORR (ALK TKI naive): 76.2%
- median PFS (ALK TKI naive): not reached
- DOR, median (95% CI) (120 mg): NR (5.52, NR)
- PFS, median (95% CI) (120 mg): NR (6.87, NR)
- TTP, median (95% CI) (120 mg): NR (6.87, NR)
- DCR (95% CI) (120 mg (n=47)): 83.0% (69.2%, 92.4%)
- ORR (95% CI) (120 mg (n=47)): 53.2% (38.1%, 67.9%)
- PFS, number of events (%) (120 mg (n=47)): 12 (25.5%)
- DOR, median (95% CI) (180 mg): NR (5.49, NR)
- PFS, median (95% CI) (180 mg): NR (NR, NR)
- TTP, median (95% CI) (180 mg): NR (NR, NR)
- DCR (95% CI) (180 mg (n=44)): 88.6% (75.4%, 96.2%)
- ORR (95% CI) (180 mg (n=44)): 63.6% (47.8%, 77.6%)
- PFS, number of events (%) (180 mg (n=44)): 8 (18.2%)
- DOR, median (95% CI) (total): NR (5.65, NR)
- PFS, median (95% CI) (total): not reached (95% CI 6.93 months to NR); also recorded: NR (6.93, NR)
- TTP, median (95% CI) (total): NR (6.93, NR)
- PFS, number of events (%) (total (n=91)): 20 (22.0%)
- patients who achieved SD (ALK-rearranged patients (n = 91)): Twenty-five
- ORR (ALK-rearranged, ALK TKI naive): 76.3%
- ORR (ALK-rearranged, ALK TKI naive, chemotherapy-naive): 85.0%
- ORR (ALK-rearranged, ALK TKI naive, received chemotherapy): 66.7%
- ORR [1]: 45.7%
- median PFS [1]: 6.9 months
- patients who achieved PR, n (%) (FAS n = 99): 56 (56.6%)
- patients with progressive disease, n (%) (FAS n = 99): 8 (8.1%)
- patients with stable disease (SD), n (%) (FAS n = 99): 27 (27.3%)
